In US20180110774A1, “COMPOSITIONS AND METHODS FOR TREATMENT OF PULMONARY HYPERTENSION” (STC.UNM, priority 2015, published 2018):

Experiments:
[1] = tested on: perivascular T cells (CD3+); test: Perivascular CD3+ T cells in lung sections of mice exposed to chronic hypoxia (immunohistochemistry); format: in vivo; conditions: WT mice, CH for 2, 5 or 21 days; SR1001 0.625 mg/day for 25 g mouse s.c.; vs vehicle
Procedure: FIGS. 5A-D—Inhibition of TH17 cell development decreases CH-induced increases in perivascular T cells. Following treatment, lungs sections were stained with an anti-CD3 antibody to allow quantification of CD3+ T cells in the perivascular region of the lungs. The RORyt specific inhibitor, SR1001 was delivered daily by sub-cutaneous injection (0.625 mg/day for 25 g mouse) for the length of normoxic or CH exposure. (A) Perivascular CD3+ cells from mice exposed to 2 days, (B) 5 days or (C) 21 days of normoxia or CH. (D) Representative images of lung sections from mice exposed to CH with or without SR1001. Values are means±SEM, *p<0.05 vs. normoxia vehicle. n=3-4/group, 5-15 arteries<150 μm outer circumference, per mouse, analyzed by 2-way ANOVA followed by multiple comparisons Student-Newman-Keuls test.
Methods: Age- and sex-matched mice C57BL/6J wild-type (WT), RAG1 KO mice (lack mature T and B cells), IL-17-GFP mice (express EGFP in cells expressing IL-17A), were used in these studies (The Jackson Laboratory). Mice were exposed to chronic hypoxia (CH) for 2 to 21 days in a hypobaric chamber maintained at a barometric pressure of 380 mmHg. Normoxic animals were housed in identical cages in the same facility under normobaric conditions (PB=630 mmHg in Albuquerque, N. Mex.). […]

CH-induced PH = test: Development of chronic hypoxia (CH)-induced pulmonary hypertension, 21 days; format: in vivo; conditions: mice, CH 21 days; SR1001 0.625 mg/day for 25 g mouse s.c. osmotic pump
Procedure: FIGS. 6A-D—Inhibition of TH17 cell polarization attenuates the development of CH-induced PH. SR1001 prepared in propylene glycol, 0.625 mg/day for 25 g mouse, was delivered sub-cutaneously via an implantable osmotic pump. Mice were exposed to normoxia or chronic hypoxia for 21 days, at which point (A) RVSP, (B) Fulton's index, (C) pulmonary arterial % wall thickness (<150 μm diameter) and (D) hematocrit were measured. Values are means±SEM; *p<0.05 vs. normoxia vehicle #p<0.05 vs. normoxic SR1001, n=4-5/group, analyzed by 2-way ANOVA followed by multiple comparisons Student-Newman-Keuls test.
(§1) Methods: Age- and sex-matched mice C57BL/6J wild-type (WT), RAG1 KO mice (lack mature T and B cells), IL-17-GFP mice (express EGFP in cells expressing IL-17A), were used in these studies (The Jackson Laboratory). Mice were exposed to chronic hypoxia (CH) for 2 to 21 days in a hypobaric chamber maintained at a barometric pressure of 380 mmHg. Normoxic animals were housed in identical cages in the same facility under normobaric conditions (PB=630 mmHg in Albuquerque, N. Mex.).
CD4+ T cells contribute to chronic hypoxia-induced pulmonary hypertension. To directly assess the contribution of T cells to CH-induced PH, recombination-activating gene 1 (RAG1) knockout mice, which lack the enzyme that plays a crucial role in the development of T and B cells were studied. Therefore, RAG1 KO mice lack mature T and B cells (Mombaerts et al., 1992). RAG1 KO mice were exposed to CH for 21 days or left in normoxia. […] RVSP was measured by direct cardiac puncture under isoflurane anesthesia (Bierer et al., 2011). The inventors also isolated CD4^+ or CD8+ cells from the lymph nodes of WT mice by negative selection using a magnetic bead cell isolation kit (Miltenyi Biotec). 2.5×10^5 cells were injected into RAG1 KO mice. After 2 weeks mice were exposed to CH or normoxia.

established PH due to CH = test: Established CH-induced pulmonary hypertension (reversal: 3 weeks CH, then SR1001 for 2 more weeks in CH); format: in vivo; conditions: mice
Procedure: FIGS. 7A-D—TH17 cell inhibition attenuates increases in RVSP in established PH. Wild-type mice were exposed to CH for 21 days followed by administration of SR1001 (25 mg/kg/day s.c.) for an additional 14 days in CH. (A) RVSP. (B) Fulton's index. (C) Pulmonary arterial remodeling. (D) % Hematocrit. Values are means±SEM; *p<0.05 vs. vehicle, n=5-6/group, analyzed by unpaired T-test.
as §1
To follow up on the immunologic timing of events, studies were undertaken to understand whether PH due to CH might be reversed once already established by inhibiting TH17 cell development. Therefore, after 3 weeks of CH, osmotic pumps containing SR1001 (0.625 mg/day for 25 g mouse). were implanted sub-cutaneously and animals were immediately returned to CH for an additional 2 weeks (5 weeks of CH total).

RORα = target: T1, RORα (Homo sapiens, UniProt P35398); conditions: selective inverse agonist; Solt et al., 2011, 2012; cited from earlier work
T1 sequence (P35398 1-523): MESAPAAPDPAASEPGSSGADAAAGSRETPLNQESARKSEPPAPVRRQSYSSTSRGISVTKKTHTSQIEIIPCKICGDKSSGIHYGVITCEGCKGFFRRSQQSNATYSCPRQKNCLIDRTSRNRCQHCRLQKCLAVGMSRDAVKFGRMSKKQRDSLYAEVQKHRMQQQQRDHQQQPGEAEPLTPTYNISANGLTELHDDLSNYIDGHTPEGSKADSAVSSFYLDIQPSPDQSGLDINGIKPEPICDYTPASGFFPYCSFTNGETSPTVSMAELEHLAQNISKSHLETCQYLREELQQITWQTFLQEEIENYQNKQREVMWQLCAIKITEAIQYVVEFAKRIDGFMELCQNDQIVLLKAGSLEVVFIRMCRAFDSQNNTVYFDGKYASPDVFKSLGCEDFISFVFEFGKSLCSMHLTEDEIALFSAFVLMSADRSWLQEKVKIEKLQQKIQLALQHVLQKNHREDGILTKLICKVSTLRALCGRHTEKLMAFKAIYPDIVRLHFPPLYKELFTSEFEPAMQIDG

RORγt = target: T2, RORγt (Homo sapiens, UniProt P51449); conditions: selective inverse agonist; Solt et al., 2011, 2012; cited from earlier work
T2 sequence (P51449 1-497 isoform P51449-2): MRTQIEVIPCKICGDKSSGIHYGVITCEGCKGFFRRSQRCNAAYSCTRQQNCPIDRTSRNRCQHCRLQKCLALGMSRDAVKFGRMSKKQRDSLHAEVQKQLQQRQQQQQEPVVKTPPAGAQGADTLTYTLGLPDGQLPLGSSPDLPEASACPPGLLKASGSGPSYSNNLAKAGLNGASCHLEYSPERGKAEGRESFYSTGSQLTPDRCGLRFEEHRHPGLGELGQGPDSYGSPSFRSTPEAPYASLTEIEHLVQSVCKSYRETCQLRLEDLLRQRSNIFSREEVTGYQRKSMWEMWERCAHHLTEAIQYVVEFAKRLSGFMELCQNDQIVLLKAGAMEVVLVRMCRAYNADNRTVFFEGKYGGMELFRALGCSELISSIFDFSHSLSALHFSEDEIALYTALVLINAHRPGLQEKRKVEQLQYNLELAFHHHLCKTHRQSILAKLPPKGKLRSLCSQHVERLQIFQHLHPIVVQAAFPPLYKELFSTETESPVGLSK

TH17 cell development [2] = conditions: Solt et al., 2011; cited from earlier work
TH17 cell development [3] = conditions: Solt et al., 2011; cited from earlier work; remark: listed apart in the source
[4] = 3 weeks CH then SR1001 for additional 2 weeks in CH

CC(=O)Nc1nc(C)c(S(=O)(=O)Nc2ccc(C(O)(C(F)(F)F)C(F)(F)F)cc2)s1 [SR1001, N-(5-(N-(4-(1,1,1,3,3,3-hexafluoro-2-hydroxypropan-2-yl)phenyl)sulfamoyl)-4-methylthiazol-2-yl)acetamide]
perivascular T cells (CD3+) in the pulmonary arterial perivascular region [1]: significant reduction | CH-induced increase in RV remodeling (Fulton's index) (CH-induced PH): attenuated | CH-induced increase in RVSP (CH-induced PH): attenuated | CH-induced increase in pulmonary arterial remodeling (% wall thickness) (CH-induced PH): attenuated | already elevated RVSP (established PH due to CH; 3 weeks CH then SR1001 (0.625 mg/day for 25 g mouse, s.c. osmotic pump) for additional 2 weeks in CH): significantly decreased | perivascular T cells in the lungs (established PH due to CH; [4]): significant decrease | pulmonary arterial remodeling (established PH due to CH; [4]): no effect | RV remodeling (Fulton's index) (established PH due to CH; 3 weeks CH then SR1001 for additional 2 weeks in CH, p<0.0583): strong trend for a decrease | activity of nuclear receptor RORα (RORα): inhibits the activity | activity of nuclear receptor RORγt (RORγt): inhibits the activity | TH17 cell development in vitro (TH17 cell development [2]): inhibits TH17 cell development | TH17 cell development in vivo (TH17 cell development [3]): inhibits TH17 cell development
